EC50, IC50 and outcome data for 68 molecules are collected here from PubChem BioAssay AID179 (DTP/NCI, 2004).

The experiment deals with CEM cells HIV-1 protection, formazan growth assay. In words: NCI AIDS Antiviral Assay. The note with it: for IC50: measured here: growth of uninfected CEM cells. An outline of the steps:
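Soluble formazan readout of cell growth; CEM cells ± HIV-1; 5 drug concs. ≥50% protection → retest; ≥50% again = moderately active; reproducible 100% = confirmed active.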

The source made the active and inactive calls.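 How the source made its calls: active means compounds giving half or more protection of infected cells from virus-caused growth loss, again on retest; inactive means the rest.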 Where a SMILES comes first, the peptide text is derived from it. Bounds are passed on as bounds.

With `O=C1C2CCC(N1CCc1ccccc1)n1c(=O)n(-c3ccccc3)c(=O)n12` (stereo unspecified), the EC50 is > 200 µM and the IC50 is > 200 µM.
In the case of `O=C(O)c1cc2ccccc2c(N=Nc2ccc(/C=C/c3ccc(N=Nc4c(O)c(C(=O)O)cc5ccccc45)cc3S(=O)(=O)O)c(S(=O)(=O)O)c2)c1O`, the EC50 was 8.51 µM and the IC50 was determined as 50.1 µM.
Taken in the same sequence, the figures for `CCOC(=O)c1[nH]c2nc(SC)nc(Nc3ccccc3Cl)c2c1N` were > 200 µM and 126 µM.
For `O=C(CN1CCN(Cc2ccccc2)CC1)c1ccc2[nH]c(=O)oc2c1` the same measures were > 200 µM and 158 µM.
For `O=C1c2ccccc2C(=O)C1(Cl)C1(Cl)C(=O)c2ccccc2C1=O`, the result was inactive.
Consider `CC(C)C(/C=C/c1ccc(Cl)cc1)=N\NC(=O)N/N=C(/C=C/c1ccc(Cl)cc1)C(C)C`, for which the EC50 was > 100 µM and the IC50 is > 100 µM.
For `CC(C)(C)[Si](C)(C)Oc1cc(CO)cc2c1cc(=N)o[n+]2[O-]`, the EC50 is > 200 µM and the IC50 came to 10.2 µM.
For `O=C1C(Cl)C(c2cc(Br)cc(Br)c2O)N1n1cnc2ccccc2c1=O` (stereo unspecified) the same measures were > 10.5 µM and > 10.5 µM.
Taken in the same sequence, the figures for `Nc1ncnc2c1ccn2CC#CCO` were > 200 µM and > 200 µM.
In the case of `COc1cc2cc(C(=O)N3CC(CCl)c4c3cc(N(C)C)c3ccccc43)[nH]c2c(OC)c1OC` (stereo unspecified), the EC50 is > 0.2 µM and the IC50 is 0.0129 µM.
For the molecule `COC(=O)c1c(C)cc(OC(=O)c2c(C)cc(O)c(C=O)c2O)c(C)c1O`, the EC50 was > 151 µM and the IC50 was determined as 20.4 µM.
Taken in the same sequence, the figures for `COc1ccc(OP2OCC(C)O2)cc1` (stereo unspecified) were > 1100 µM and 46.8 µM.
Taken in the same sequence, the figures for `CC1C(c2ccccc2)OC(N2CCOCC2)C(C)(C)CN1C` (stereo unspecified) were > 200 µM and > 200 µM.
For `O=C(Cc1ccccc1)NNc1nc(NNC(=O)c2ccncc2)nc(Nc2ccc([N+](=O)[O-])cc2)n1` the same measures were > 100 µM and 11.5 µM.
`C/C(CC(=O)NC1=CC=C(NC(=O)C/C(C)=N\Nc2ccccc2)CC1)=N/Nc1ccccc1`: the EC50 is > 56.2 µM and the 50% inhibitory concentration (IC50) is > 56.2 µM.
As for `COc1ccc2c(NCCCCCCNc3c4ccccc4nc4cc(OC)ccc34)c3ccccc3nc2c1`, the outcome was inactive.
With `N#CC12CC3=C(N=C1NC1=C(CCc4ccccc41)C2)c1ccccc1CC3` (stereo unspecified), the EC50 is > 200 µM and the IC50 was 3.02 µM.
For `CCOC(=O)NN(C(=O)OCC)C(C(=O)c1ccccc1)N(NC(=O)OCC)C(=O)OCC` the same measures were > 200 µM and > 200 µM.
Turning to `Sc1ccccc1N=Cc1cccs1`, the EC50 was > 200 µM and the IC50 was found to be 93.3 µM.
For `CCNc1ccc(-c2ccccc2)nc1N1CCN(C(=O)c2cc3cc(OC)ccc3[nH]2)CC1` the same measures were > 200 µM and 24 µM.
Taken in the same sequence, the figures for `CCOC(=O)c1c2c3c(cccc3[nH]c1=O)Sc1ncccc1-2` were > 200 µM and 15.8 µM.
Turning to `Cc1c(-c2ccccc2)sc(N)c1C#N`, the result was inactive.
Consider `N#CCCN(CCO)CCO`, for which the EC50 was > 200 µM and the IC50 is > 200 µM.
For `CN1CCc2ccccc2C(C(=O)c2ccc(Cl)cc2)C1=O` (stereo unspecified), the EC50 was > 83.2 µM and the concentration for half-maximal inhibition (IC50) was > 83.2 µM.
Turning to `O=C(c1ccc(Cl)cc1)N(C(=S)N1CCN(c2ccccc2)CC1)c1ccccc1`, the EC50 is > 12 µM and the concentration for half-maximal inhibition (IC50) was 11.2 µM.
Turning to `CC(=O)OC1(C#N)CC2OC1C1N=NN(C(=O)OC(C)(C)C)C21` (stereo unspecified), the EC50 was > 155 µM and the half-maximal inhibitory concentration (IC50) is 14.8 µM.
As to `CCN(CC)CCC(=O)c1ccc(OC)cc1`, the EC50 is > 912 µM and the IC50 amounted to 19.5 µM.
For `C1CCC2(CC1)O[C@@H]1[C@@H](O2)[C@@H](O[C@H]2O[C@@H]3COC4(CCCCC4)O[C@H]3[C@@H]3OC4(CCCCC4)O[C@@H]23)O[C@@H]2COC3(CCCCC3)O[C@@H]12` the same measures were > 100 µM and > 100 µM.
Taken in the same sequence, the figures for `CCCCN1C(=O)c2cccc3cccc(c23)C1=O` were > 200 µM and 112 µM.
For `O=C(O)CC1OCC=C2CN3CCC45C6=CC(=O)C(=O)C([N+](=O)[O-])=C6NC4C1C2CC35` (stereo unspecified) the same measures were > 200 µM and 28.2 µM.
For the molecule `CC(=O)NNc1nc(C)c(C(=O)/C=C/c2ccccc2Cl)s1`, the EC50 was > 77.6 µM and the IC50 amounted to 58.9 µM.
With `O=C(N/C(=C\c1cc(Cl)ccc1Cl)c1nc2ccccc2[nH]1)c1ccccc1`, the result was inactive.
With `Cn1c(=O)c2c(nc3n(Cc4ccccc4)c(=O)c(Br)cn23)n(C)c1=O`, the EC50 was > 100 µM and the IC50 is 38.9 µM.
For `COC(=O)NNC(c1ccc(Cl)cc1)c1ccc(Cl)cc1` the same measures were > 200 µM and 30.9 µM.
For `O=C1NC2C3CC(OCc4ccccc4)(OCc4ccccc4)C2OC3O1` (stereo unspecified) the same measures were > 97.7 µM and > 97.7 µM.
Taken in the same sequence, the figures for `NS(=O)(=O)c1ccc(NC(=S)/N=C\C(C(=O)c2ccccc2)=C(\O)c2ccccc2)cc1` were > 200 µM and 105 µM.
Turning to `Cc1ccc(/C=C2\Cc3cc(C)c(C)cc3C2=O)c(C(=O)O)c1`, the EC50 was > 200 µM and the IC50 came to 38.9 µM.
For `O=c1[nH]c2ccccc2c(=O)n1CCCN1CCN(c2cccc(Cl)c2)CC1` the same measures were > 200 µM and 50.1 µM.
Taken in the same sequence, the figures for `CCNC(=S)N/N=C/c1cc([N+](=O)[O-])ccc1O` were > 200 µM and 5.01 µM.
Taken in the same sequence, the figures for `CC(C)CCCC(C)[C@H]1CC[C@H]2[C@H]3CC[C@H]4C[C@@H](CCC=C(c5cc(Cl)c(O)c(C(=O)O)c5)c5cc(Cl)c(O)c(C(=O)O)c5)CC[C@]4(C)[C@H]3CC[C@]12C` (stereo partly specified) were > 200 µM and > 200 µM.
Take `Cc1c(Cl)ccc2c1NC(=O)C2(O)C(C(=O)c1ccccc1)c1ccccc1` (stereo unspecified): the EC50 was > 66.1 µM and the IC50 is > 66.1 µM.
For `O=C(O)c1cc(-n2c(-c3ccccc3)cc3c2CCc2ccccc2-3)ccc1O`, the outcome was inactive.
Same read-out and setting: in the case of `Cc1ccc(/C=N/NS(=O)(=O)c2ccccc2)c(C)c1` it was “inactive”; in that of `Cc1ccc(O)c(N=Nc2ccc(S(=O)(=O)O)cc2)n1`, “inactive”.
On to `O=[N+]([O-])c1ccc(NN=C2CN3CCN(C2)c2ccccc23)c([N+](=O)[O-])c1`, for which the EC50 is > 200 µM and the IC50 was 162 µM.
Take `CCCCN(CCCC)CCCOC(=O)c1ccc2oc3ccc(C(=O)OCCCN(CCCC)CCCC)cc3c2c1`: the EC50 was > 38.9 µM and the IC50 worked out at 10.5 µM.
For `CCOC(=O)c1c(NC(=O)C(F)(F)F)[nH]c(SSc2[nH]c(NC(=O)C(F)(F)F)c(C(=O)OCC)c2C(=O)OCC)c1C(=O)OCC` the same measures were > 89.1 µM and 4.27 µM.
For `CN1CCC2(CC1)OC(c1ccccc1)C(c1ccccc1)O2` (stereo unspecified) the same measures were > 200 µM and 115 µM.
Taken in the same sequence, the figures for `O=C1c2cc3ccccc3cc2C2(c3ccc(Cl)cc3)NCCN12` (stereo unspecified) were > 200 µM and 32.4 µM.
`CCOC(=O)c1[nH]c(COC(C)=O)c2c1CCCCCCCCCC2`: the outcome was inactive.
Same read-out and setting: the same measure for `CCC(C)C(N)C(=O)NC(C(=O)NC(CO)C(=O)NC(C)C(=O)NC(CO)C(=O)NC(C(=O)NC(CCCCN)C(=O)NC(CCCCN)C(=O)NC(CO)C(=O)NC(Cc1ccccc1)C(=O)O)C(C)CC)C(C)CC` (stereo unspecified) (H-IISASIKKSF-OH; configuration not given here): “inactive”.
With `CCOC(=O)C1(c2ccc(O)c(O)c2)CCN(C)CC1`, the EC50 was > 794 µM and the IC50 was 380 µM.
Turning to `N#CC(C#N)=Cc1cccc(Oc2ccccc2)c1`, the EC50 was > 29.5 µM and the IC50 was > 29.5 µM.
With `CC(=O)OCC1OC(n2c(-c3ccc(N)cc3)cc(-c3ccco3)c(C#N)c2=O)C(OC(C)=O)C(OC(C)=O)C1OC(C)=O` (stereo unspecified), the EC50 is > 11.7 µM and the IC50 is > 11.7 µM.
`COc1cc(/C=C2\S/C(=N/Nc3nc(-c4ccc(Br)cc4)cs3)NC2=O)cc(OC)c1OC`: the EC50 is > 200 µM and the IC50 came to 17 µM.
Taken in the same sequence, the figures for `Cc1cc(NC(=O)c2ccc(NC(=O)c3ccc(N)cc3)cc2)ccc1N=Nc1ccc2c(O)c(N=Nc3ccc(S(=O)(=O)O)cc3C)c(S(=O)(=O)O)cc2c1` were 6.17 µM and > 100 µM.
On to `CC1=Nc2ccccc2SC(c2c(Cl)cccc2Cl)C1` (stereo unspecified), for which the EC50 is > 22.4 µM and the IC50 is 4.57 µM.
For `CC12N=NN(c3ccc([N+](=O)[O-])cc3)C1(O)c1ccccc1C2=O` (stereo unspecified) the same measures were > 200 µM and > 200 µM.
Turning to `C[C@@H]1C[C@H]2[C@@H]3CCC4=CC(=O)C=C[C@]4(C)[C@@]3(F)[C@@H](O)C[C@]2(C)[C@H]1O`, the outcome was inactive.
Turning to `CN(C)c1ccc(/C=C(\C#N)c2ccc(F)cc2F)cc1`, the EC50 was > 200 µM and the half-maximal inhibitory concentration (IC50) is 1.2 µM.
On to `COC1OC(C)/C(=N/O)C2OC(C)(C)OC12` (stereo unspecified), for which the EC50 is > 1070 µM and the IC50 is > 1070 µM.
With `CCOC(=O)C(NC(=O)c1ccccc1)(c1ccc(S(=O)(=O)Nc2onc(C)c2C)cc1)C(F)(F)F` (stereo unspecified), the EC50 was > 200 µM and the IC50 is > 200 µM.
Turning to `NC1C(O)C(O)C(O)C(O)C1O` (stereo unspecified), the EC50 was > 7240 µM and the half-maximal inhibitory concentration (IC50) was > 7240 µM.
On to `C=CCc1cc(-c2cc(CC=C)c(O)c(CN(CC)CC)c2)cc(CN(CC)CC)c1O`, for which the EC50 is > 200 µM and the IC50 was 93.3 µM.
Taken in the same sequence, the figures for `CCN(CC)C(=S)SSC(=S)N(CC)CC` were > 200 µM and 44.7 µM.
As to `O=c1[nH]c(=O)n(C2C=CC(CO)O2)cc1F` (stereo unspecified), the EC50 is > 200 µM and the IC50 is > 200 µM.
Turning to `O=C(CCCCCCCCC(=O)N1C(=O)CC(=O)N(c2ccccc2)C1=S)N1C(=O)CC(=O)N(c2ccccc2)C1=S`, the EC50 was > 200 µM and the IC50 was found to be 123 µM.
For `Cc1c(C)c2cc3c(=O)c(CCl)coc3c(C)c2oc1=O` the same measures were > 17 µM and > 17 µM.

As a reminder, the EC50 is the concentration giving half of the maximal effect. As a reminder, the IC50 is the concentration needed to halve the response being measured.
